Laboratory results published in ChEMBL document CHEMBL1145182, “Molecular dynamics simulations of the TEM-1 beta-lactamase complexed with cephalothin” (J Med Chem, 2005).

Molecular target: Beta-lactamase TEM (Escherichia coli) (UniProt P62593)
Assay: Rate of catalysis against TEM-1 beta-lactamase

Beta-lactamase TEM (Escherichia coli), sequence (P62593 whole entry): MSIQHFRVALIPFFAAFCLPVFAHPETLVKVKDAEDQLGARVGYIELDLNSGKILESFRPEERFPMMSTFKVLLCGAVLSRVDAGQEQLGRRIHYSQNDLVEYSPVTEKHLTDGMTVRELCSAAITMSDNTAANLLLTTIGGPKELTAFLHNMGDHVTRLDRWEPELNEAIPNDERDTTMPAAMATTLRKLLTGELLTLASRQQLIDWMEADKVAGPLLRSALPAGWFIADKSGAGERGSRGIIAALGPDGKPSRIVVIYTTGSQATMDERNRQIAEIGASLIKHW

Compound | K cat
CC1(C)S[C@@H]2[C@H](NC(=O)Cc3ccccc3)C(=O)N2[C@H]1C(=O)O | 1280 1/S
CC(=O)OCC1=C(C(=O)O)N2C(=O)[C@@H](NC(=O)Cc3cccs3)[C@H]2SC1 | 115 1/S
